Laboratory results published in PMC3478562 (Biochemical pharmacology, 2011).
≈ marks a conversion by molar mass, not a printed value. Each block holds one compound with its values, some of them ahead of it.

What was measured:
[1] = system: Staphylococcus epidermidis 831; experiment: Antimicrobial activity spectrum MIC; assay type: cell-based
[2] = system: Enterococcus faecalis 101; experiment: Antimicrobial activity spectrum MIC; assay type: cell-based
[3] = system: Enterococcus faecium 800; experiment: Antimicrobial activity spectrum MIC; assay type: cell-based
[4] = system: Streptococcus pneumoniae 1195; experiment: Antimicrobial activity spectrum MIC; assay type: cell-based
[5] = system: Streptococcus pyogenes 712; experiment: Antimicrobial activity spectrum MIC; assay type: cell-based
[6] = system: Escherichia coli 102; experiment: Antimicrobial activity spectrum MIC; assay type: cell-based
[7] = system: Escherichia coli 120 (acrAB efflux pump deletion); experiment: microbe, parasite or virus in culture; assay type: cell-based
[8] = system: Klebsiella pneumoniae 1339; experiment: Antimicrobial activity spectrum MIC; assay type: cell-based
[9] = system: Proteus mirabilis 1360; experiment: Antimicrobial activity spectrum MIC; assay type: cell-based
[10] = system: Pseudomonas aeruginosa 1380; experiment: Antimicrobial activity spectrum MIC; assay type: cell-based
[11] = system: Candida albicans 2000; experiment: Antimicrobial activity spectrum MIC; assay type: cell-based
[12] = system: Aspergillus niger 624; experiment: Antimicrobial activity spectrum MIC; assay type: cell-based
[13] = molecular target: T1, Alr (Staphylococcus aureus, UniProt Q6GF03); experiment: Inhibitor reversibility: IC50 after pre-incubation with the enzyme; assay type: biochemical; conditions: pre-incubation 30 minutes vs 6 hours (16 hours)
[14] = molecular target: T1, Alr; experiment: Inhibitor reversibility: pre-incubation and dialysis; assay type: biochemical; conditions: pre-incubated 30 minutes, dialyzed for 16 hours
[15] = system: Staphylococcus aureus 328; experiment: S. aureus MIC, broth microdilution
[16] = system: Staphylococcus aureus HFH-29568; experiment: S. aureus MIC, broth microdilution; conditions: HFH29568
[17] = system: Staphylococcus aureus HFH-30364; experiment: S. aureus MIC, broth microdilution; conditions: HFH30364
[18] = system: Staphylococcus aureus HFH-30522; experiment: S. aureus MIC, broth microdilution; conditions: HFH30522
[19] = system: Staphylococcus aureus HFH-30032; experiment: S. aureus MIC, broth microdilution; conditions: HFH30032
[20] = system: Staphylococcus aureus PCI 1158; experiment: S. aureus MIC, broth microdilution; conditions: PCI1158
[21] = system: Staphylococcus aureus FDA 209; experiment: S. aureus MIC, broth microdilution; conditions: FDA209
[22] = system: Staphylococcus aureus PCI 124; experiment: S. aureus MIC, broth microdilution; conditions: PCI124
[23] = system: S. aureus N315; experiment: MIC in wild type and Alr overexpressing strains; conditions: Staphylococcus aureus
[24] = system: S. aureus N315-alr (Alr overexpressing); experiment: MIC in wild type and Alr overexpressing strains; conditions: Staphylococcus aureus
[25] = system: S. aureus USA 300; experiment: MIC in wild type and Alr overexpressing strains; conditions: Staphylococcus aureus, USA300
[26] = system: S. aureus USA300-alr (Alr overexpressing); experiment: MIC in wild type and Alr overexpressing strains; conditions: Staphylococcus aureus

SMILES: C[C@@H]1[C@H](O)[C@@H](C)/C=C/C=C/C=C/C=C/C=C/C=C/C=C/[C@H](O[C@@H]2O[C@H](C)[C@@H](O)[C@H](N)[C@@H]2O)C[C@@H]2O[C@](O)(C[C@@H](O)C[C@@H](O)[C@H](O)CC[C@@H](O)C[C@@H](O)CC(=O)O[C@H]1C)C[C@H](O)[C@H]2C(=O)O [AMPB, Amphotericin B]
- MIC [1]: > 64 µg/mL
- MIC [2]: > 64 µg/mL
- MIC [3]: > 64 µg/mL
- MIC [4]: > 64 µg/mL
- MIC [5]: > 64 µg/mL
- MIC [6]: > 64 µg/mL
- MIC [7]: > 64 µg/mL
- MIC [8]: > 64 µg/mL
- MIC [9]: > 64 µg/mL
- MIC [10]: > 64 µg/mL

SMILES: N[C@@H]1CON=C1O [DCS, D-cycloserine]
- change of IC50 values with longer pre-incubation time [13]: a significant reduction in the IC50 values occurs with longer pre-incubation time
- recovery of Alr activity after dialysis [14]: no increase in activity
- MIC [15]: 12.5 µg/mL (≈ 122 µM)
- MIC [16]: 12.5 µg/mL (≈ 122 µM)
- MIC [17]: 12.5 µg/mL (≈ 122 µM)
- MIC [18]: 12.5 µg/mL (≈ 122 µM)
- MIC [19]: 12.5 µg/mL (≈ 122 µM)
- MIC [20]: 12.5 µg/mL (≈ 122 µM)
- MIC [21]: 12.5 µg/mL (≈ 122 µM)
- MIC [22]: 12.5 µg/mL (≈ 122 µM)
- MIC [23]: 25 µg/mL (≈ 245 µM)
- MIC [24]: 25 µg/mL (≈ 245 µM)
- MIC [25]: 25 µg/mL (≈ 245 µM)
- MIC [26]: 25 µg/mL (≈ 245 µM)

SMILES: CCC(=O)[O-].[Na+] [sodium propionate]
- recovery of Alr activity after dialysis [14]: recovery of Alr activity

The remaining lines, values ahead:

- MIC [1]: > 16 µg/mL
- MIC [3]: > 16 µg/mL
- MIC [4]: 0.5 µg/mL (≈ 1.51 µM)
- MIC [11]: > 64 µg/mL
- MIC [12]: > 64 µg/mL
SMILES: O=C(O)c1cn(C2CC2)c2cc(N3CCNCC3)c(F)cc2c1=O [Cipro, Ciprofloxacin]

- change of IC50 values with longer pre-incubation time [13]: no significant reduction in IC50 values
SMILES: CC(=O)OC[C@H](N)C(=O)O [O-acetyl-L- serine, O-acetyl-L-serine]
